# Columns and labels:
# Vasopressin V2 receptor [1] = target: T1, Vasopressin V2 receptor (Homo sapiens, UniProt P30518); assay: Percentage of maximal cAMP accumulation at a concentration of 10e-4 M was done in HeLa cells expressing the human Vasopressin V2 receptor; format: functional, cell-based
# Vasopressin V2 receptor [2] = target: T1, Vasopressin V2 receptor; assay: Binding affinity against human Vasopressin V2 receptor expressed in HeLa cells was determined; format: cell-based
# Vasopressin V2 receptor [3] = target: Vasopressin V2 receptor (Rattus norvegicus, UniProt Q00788); assay: Binding affinity against Vasopressin V2 receptor was determined in Brattleboro rats
# Sequence of Vasopressin V2 receptor (Rattus norvegicus, UniProt Q00788) (Q00788 whole entry): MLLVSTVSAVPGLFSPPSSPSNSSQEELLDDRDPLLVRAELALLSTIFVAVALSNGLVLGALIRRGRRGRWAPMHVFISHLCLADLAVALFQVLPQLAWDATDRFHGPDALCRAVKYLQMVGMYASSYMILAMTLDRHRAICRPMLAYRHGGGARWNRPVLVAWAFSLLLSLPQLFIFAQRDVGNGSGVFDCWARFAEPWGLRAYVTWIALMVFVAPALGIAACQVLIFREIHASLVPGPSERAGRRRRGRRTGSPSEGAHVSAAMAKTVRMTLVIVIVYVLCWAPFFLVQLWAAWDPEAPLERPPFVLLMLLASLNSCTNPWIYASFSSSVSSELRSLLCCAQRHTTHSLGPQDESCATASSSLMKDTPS
# T1 sequence (P30518 whole entry): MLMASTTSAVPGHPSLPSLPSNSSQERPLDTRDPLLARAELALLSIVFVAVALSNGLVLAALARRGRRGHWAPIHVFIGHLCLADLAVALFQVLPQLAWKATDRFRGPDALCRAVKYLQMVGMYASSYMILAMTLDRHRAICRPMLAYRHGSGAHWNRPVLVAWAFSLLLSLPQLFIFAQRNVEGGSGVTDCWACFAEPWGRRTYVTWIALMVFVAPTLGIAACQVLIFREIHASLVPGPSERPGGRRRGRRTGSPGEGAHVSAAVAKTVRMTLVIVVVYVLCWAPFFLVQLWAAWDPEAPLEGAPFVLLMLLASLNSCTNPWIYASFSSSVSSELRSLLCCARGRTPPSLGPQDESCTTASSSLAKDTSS
Structure (SMILES),Accumulation (Vasopressin V2 receptor [1]) [%],IC50 (Vasopressin V2 receptor [2]) [nM],IC50 (Vasopressin V2 receptor [3]) [nM]
CC(C)NC(=O)C[C@@H]1CCCN(C(=O)c2ccc(N3CCCC3)cc2Cl)c2ccccc21,22,980,390
CC(C)NC(=O)C[C@H]1CCCN(C(=O)c2ccc(N3CCCC3)cc2Cl)c2ccccc21,–,330,230

# From ChEMBL document CHEMBL1135753, “Characterization of orally active nonpeptide vasopressin V(2) receptor agonist. Synthesis and biological evaluation of both the (5R)- and (5S)-enantioisomers of 2-[1-(2-Chloro-4-pyrrolidin-1-yl-benzoyl)-2,3,4,5-tetrahydro-1H-1-benzazepin- 5-yl]-N-isopropylacetamide” (J Med Chem, 2002)
